Results on ten molecules are retold here after patent US11384099B2, “Pyrazolopyridinone compounds” (Janssen Pharmaceutica NV, priority 2017, dated 2022).

In assay [1] the test system is NIH/3T3 cells transfected with control vector (MOCK). Briefly: NIH/3T3 mock cell proliferation assay (CTG, counter assay). Format: cell-based. The settings on record: Mus musculus, NIH3T3; 72-hr incubation, CellTiter Glo; counter assay for general toxicity. The method, then: NIH/3T3 Mock Cell Proliferation Assay
(§1) In day 1, 90 μL of cell suspension (NIH/3T3 cells transfected with the same control vector as in the above two proliferation assays) (total 30,000 cells per well in growth medium (DMEM containing 1% Glutamax, 10% FBS and 1% Pen/Strep)) was seeded in a 96-well plate and then incubated overnight at 37° C. and 5% CO2. In day 2, 10 μL of growth medium containing 10-fold stock solution of testing compound was added into cell cultures (9 dose points with 3× serial dilution, starting with 30 μM, 0.3% DMSO final). After 72-hr incubation at 37° C. and 5% CO2, in day 5 a volume of 50 μL CellTiter Glo (CTG) reagent was added into cell-containing 96-well plate and the plate was incubated at room temperature for 10 minutes before RLUs (relative light unit) were measured on a microplate reader with luminescence detection module. The RLU value was normalized to survival % and concentration-response curve was plotted using Prism to calculate IC50 (M), pIC50 (−log IC50) and HillSlope value.

Assay [2] deals with T1, human FGFR3 V555M enzyme (cytoplasmic domain carrying V555M mutation) (Homo sapiens, UniProt P22607, V555M).
T1 construct: cytoplasmic domain carrying V555M mutation, from Carna Biosciences; purchased Carna Biosciences
T1 sequence (P22607 397-806 V555M limits assumed): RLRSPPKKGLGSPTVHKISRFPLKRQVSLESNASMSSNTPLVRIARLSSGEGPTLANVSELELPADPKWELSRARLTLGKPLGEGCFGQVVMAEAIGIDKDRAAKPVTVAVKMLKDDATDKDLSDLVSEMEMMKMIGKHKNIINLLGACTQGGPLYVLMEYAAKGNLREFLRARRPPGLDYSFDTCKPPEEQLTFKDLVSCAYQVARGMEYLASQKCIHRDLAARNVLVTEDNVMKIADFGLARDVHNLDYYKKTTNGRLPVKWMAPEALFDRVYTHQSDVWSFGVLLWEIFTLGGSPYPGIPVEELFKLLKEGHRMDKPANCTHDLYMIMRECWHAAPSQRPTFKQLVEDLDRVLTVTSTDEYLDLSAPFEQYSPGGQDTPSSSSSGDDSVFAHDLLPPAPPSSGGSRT
Briefly: FGFR3 V555M mobility shift assay (enzymatic assay, Caliper). Format: biochemical. As to conditions: 30 μM ATP, 45 minutes at 30° C. An outline of the steps: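 Cytoplasmic-domain human FGFR3 V555M (0.04 ng/μL) reacted with 30 μM ATP and 1 μM FL-peptide 30 in HEPES pH 7.4, MgCl2, Brij35, DTT, 1% DMSO final. Incubation 45 min at 30 °C, stopped with EDTA. Substrate/product separated and read by mobility shift on a Caliper EZ reader II.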

Assay [3] concerns the target T2, human FGFR3 wild type enzyme (cytoplasmic domain) (Homo sapiens, UniProt P22607).
T2 construct: human FGFR3 wild type enzyme (cytoplasmic domain, from Cama Biosciences); purchased Carna Biosciences
The experiment in a line: FGFR3 wild type mobility shift assay (enzymatic assay, Caliper). Format: biochemical. The settings on record: 75 μM ATP, 50 minutes at 30° C. An outline of the steps:
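Cytoplasmic-domain FGFR3 (0.04 ng/μL) reacted with 75 μM ATP and 1 μM FL-peptide 30 in HEPES pH 7.4/MgCl2/Brij35/DTT buffer, 1% DMSO final. Incubation 50 min at 30° C, EDTA stop; substrate phosphorylation read by microfluidic mobility shift.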

The target in assay [4] is T3, NIH/3T3 cells overexpressing FGFR3 WT-TACC3 fusion protein (Homo sapiens, UniProt P22607).
T3 construct: NIH/3T3 FGFR3 WT-TACC3 CTG (IC50); other: 72-hr incubation, CellTiter Glo; fused on or other part: C-terminal coiled-coil part of TACC3 (part of the key, as a fusion known from patients); Q9Y6A5 (Transforming acidic coiled-coil-containing protein 3)
T3 sequence (P22607 whole entry, change not shown, the tested form may be a part): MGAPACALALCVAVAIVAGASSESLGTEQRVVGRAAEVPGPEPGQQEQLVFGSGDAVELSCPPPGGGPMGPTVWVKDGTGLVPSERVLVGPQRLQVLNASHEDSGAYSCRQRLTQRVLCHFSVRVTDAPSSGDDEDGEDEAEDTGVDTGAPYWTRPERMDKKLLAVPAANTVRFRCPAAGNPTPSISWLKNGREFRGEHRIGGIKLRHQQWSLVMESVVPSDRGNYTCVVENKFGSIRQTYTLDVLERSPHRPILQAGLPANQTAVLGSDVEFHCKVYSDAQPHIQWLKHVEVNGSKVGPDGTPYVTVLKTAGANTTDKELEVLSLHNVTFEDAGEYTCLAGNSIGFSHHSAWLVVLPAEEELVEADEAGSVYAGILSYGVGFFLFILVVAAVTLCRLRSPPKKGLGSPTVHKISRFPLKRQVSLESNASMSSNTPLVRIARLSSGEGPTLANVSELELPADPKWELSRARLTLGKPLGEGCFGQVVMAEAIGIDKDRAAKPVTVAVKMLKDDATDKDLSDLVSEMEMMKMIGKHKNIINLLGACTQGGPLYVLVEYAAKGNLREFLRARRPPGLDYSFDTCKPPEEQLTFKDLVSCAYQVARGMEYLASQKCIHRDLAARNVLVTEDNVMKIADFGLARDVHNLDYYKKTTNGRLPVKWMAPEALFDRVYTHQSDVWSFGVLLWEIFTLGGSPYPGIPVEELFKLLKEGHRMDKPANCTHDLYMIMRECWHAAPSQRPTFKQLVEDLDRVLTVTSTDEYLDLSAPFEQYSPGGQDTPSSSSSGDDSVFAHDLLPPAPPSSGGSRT
The experiment in a line: NIH/3T3 FGFR3 WT-TACC3 cell proliferation assay (CTG). As to conditions: 72-hr incubation, CellTiter Glo; read-out: NIH/3T3 FGFR3 WT-TACC3 CTG (IC50). Format: cell-based. The method, then:
NIH/3T3 FGFR3 WT-TACC3 Cell Proliferation Assay
as §1, with “cells overexpressing FGFR3 WT-TACC3 fusion protein)” for “cells transfected with the same control vector as in the above two proliferation assays)”, “with 4×” for “with 3×”, “with 10” for “with 30”, “μM, 0.1%” for “μM, 0.3%”

Assay [5] deals with NIH/3T3 cells overexpressing FGFR3 WT-TACC3 fusion protein. Briefly: NIH/3T3 FGFR3 WT-TACC3 cellular phospho-ERK assay (in vitro PD assay). Format: cell-based. As to conditions: Mus musculus, NIH3T3; 1-hr incubation, AlphaLISA SureFire Ultra p-ERK1/2; read-out: NIH/3T3 FGFR3 WT-TACC3 pERK (IC50). How it is done:
NIH/3T3 FGFR3 WT-TACC3 Cellular Phospho-ERK Assay (In Vitro PD Assay)
(§2) 50 uL of cell suspension (NIH/3T3 cells overexpressing FGFR3 WT-TACC3 fusion protein) (total 10,000 cells per well in growth medium (DMEM containing 1% Glutamax, 10% FBS and 1% Pen/Strep)) was seeded in a 384-well plate. After overnight incubation at 37° C. and 5% CO2, 5.5 μL of growth medium containing 10× testing compound was added into cell cultures (10 dose points with 4× serial dilution, starting with 10 μM, 0.1% DMSO final). After 1-hr incubation at 37° C. and 5% CO2, the medium was depleted and AlphaLISA SureFire Ultra p-ERK1/2 (Thr202/Tyr204) Assay Kit (from PerkinElmer) was applied for phospho-ERK level detection according to the kit instructions. The RFUs (relative fluorescence units were measured on EnVision microplate reader (ex. 680 nm, em. 615 nm) and concentration-response curve was plotted using Prism to calculate IC50 (M), pIC50 (−log IC50) and HillSlope value.

The test system of assay [6] is NIH/3T3 cells overexpressing FGFR3 V555M-TACC3 fusion protein. Briefly: NIH/3T3 FGFR3 V555M-TACC3 cellular phospho-ERK assay (in vitro PD assay). Format: cell-based. As to conditions: Mus musculus, NIH3T3; 1-hr incubation, AlphaLISA SureFire Ultra p-ERK1/2; read-out: NIH/3T3 FGFR3 V555M-TACC3 pERK (IC50). The method, then: NIH/3T3 FGFR3 V555M-TACC3 Cellular Phospho-ERK Assay (In Vitro PD Assay)
as §2, with “μL” for “uL”, “V555M-TACC3” for “WT-TACC3”

T2 sequence (P22607 397-806 limits assumed): as the sequence (P22607 397-806 V555M limits assumed) above, with M159V counted along it

In the case of `CCn1cc2[nH]c(=O)c(-c3nc4c(OC)cc(OC)cc4[nH]3)c(N[C@@H](C)c3ncccn3)c2n1` [Compound 31, (S)-6-(4,6-dimethoxy-1H-benzo[d]imidazol-2-yl)-2-ethyl-7-((1-(pyrimidin-2-yl)ethyl)-amino)-2H-pyrazolo[4,3-b]pyridin-5 (4H)-one], the IC50 in assay [1] was 1940 nM; in assay [2], 1.78 nM; in assay [3], 6.21 nM. In addition, the GI50 in assay [4] stood at 34.4 nM.

On to `COc1cc2[nH]c(-c3c(N[C@@H](C)c4ncccn4)c4nn(C)cc4[nH]c3=O)nc2c(F)c1OC` [Compound 55, (S)-6-(4-fluoro-5,6-dimethoxy-1H-benzo[d]imidazol-2-yl)-2-methyl-7-((1-(pyrimidin-2-yl)ethyl)amino)-2H-pyrazolo[4,3-b]pyridin-5 (4H)-one], for which the IC50 worked out at 2280 nM in assay [1]; 0.392 nM in assay [2]; 0.957 nM in assay [3]; 5.5 nM in assay [5]; 5.19 nM in assay [6]. For the same molecule, the GI50 in assay [4] is 17.4 nM.

Consider `CCn1cc2[nH]c(=O)c(-c3nc4cc(OC)c(OCCOC)cc4[nH]3)c(N[C@@H](C)c3ncccn3)c2n1` [Compound 38, (S)-2-ethyl-6-(5-methoxy-6-(2-methoxyethoxy)-1H-benzo[d]imidazol-2-yl)-7-((1-(pyrimidin-2-yl)ethyl)amino)-2H-pyrazolo[4,3-b]pyridin-5 (4H)-one], for which the IC50 in assay [1] turned out to be 532 nM; in assay [2], 0.568 nM; in assay [3], 0.98 nM. In assay [4], the GI50 was found to be 18.4 nM.

With `CCOc1cc2nc(-c3c(N[C@@H](C)c4ncccn4)c4nn(CC)cc4[nH]c3=O)[nH]c2cc1OCC` [Compound 52, (S)-6-(5,6-diethoxy-1H-benzo[d]imidazol-2-yl)-2-ethyl-7-((1-(pyrimidin-2-yl)ethyl)-amino)-2H-pyrazolo[4,3-b]pyridin-5 (4H)-one], the IC50 worked out at 653 nM in assay [1]; 0.281 nM in assay [2]; 0.853 nM in assay [3]; 5.66 nM in assay [5]; 6.67 nM in assay [6].

Take `COc1cc2nc(-c3c(N[C@@H](C)c4ccccn4)c4nn(C)cc4[nH]c3=O)[nH]c2cc1OC` [Compound 56, (S)-6-(5,6-dimethoxy-1H-benzo[d]imidazol-2-yl)-2-methyl-7-((1-(pyridin-2-yl)ethyl)-amino)-2H-pyrazolo[4,3-b]pyridin-5 (4H)-one]: the IC50 in assay [1] amounted to 857 nM; in assay [2], 0.296 nM; in assay [3], 1.56 nM; in assay [5] it was 7.92 nM; in assay [6], 5.16 nM.

Take `C[C@H](Nc1c(-c2nc3ccc(F)cc3[nH]2)c(=O)[nH]c2cn(C)nc12)c1ncccn1` [Compound 28, (S)-6-(6-Fluoro-1H-benzo[d]imidazol-2-yl)-2-methyl-7-((1-(pyrimidin-2-yl)ethyl)amino)-2H-pyrazolo[4,3-b]pyridin-5 (4H)-one]: the values for the IC50 in assay [1], in assay [2] and in assay [3] were 2030 nM, 0.595 nM and 2.15 nM, respectively. The GI50 in assay [4] was found to be 23.3 nM.

As for `COc1ccc2nc(-c3c(N[C@@H](C)c4ncccn4)c4nn(C)cc4[nH]c3=O)[nH]c2c1` (single isomer, unassigned) [Compound 1, (S*)-6-(6-Methoxy-1H-benzo[d]imidazol-2-yl)-2-methyl-7-((1-(pyrimidin-2-yl)ethyl)-amino)-2H-pyrazolo[4,3-b]pyridin-5 (4H)-one], the IC50 amounted to 987 nM in assay [1], 3.2 nM in assay [5] and 3.05 nM in assay [6].

Take `CCOc1cc2[nH]c(-c3c(N[C@@H](C)c4ncccn4)c4nn(C)cc4[nH]c3=O)nc2cc1OC` [Compound 7, (S)-6-(6-ethoxy-5-methoxy-1H-benzo[d]imidazol-2-yl)-2-methyl-7-((1-(pyrimidin-2-yl)ethyl)amino)-2,4-dihydro-5H-pyrazolo[4,3-b]pyridin-5-one]: the IC50 in assay [1] stood at 713 nM; in assay [2] it was 0.183 nM; in assay [3] it was 0.327 nM; in assay [5] it was 3.64 nM; in assay [6], 2.79 nM.

Consider `CCn1cc2[nH]c(=O)c(-c3nc4cc(OC)c(OC)cc4[nH]3)c(N[C@@H](C)c3ccccn3)c2n1` [Compound 51, (S)-6-(5,6-dimethoxy-1H-benzo[d]imidazol-2-yl)-2-ethyl-7-((1-(pyridin-2-yl)ethyl)-amino)-2,4-dihydro-5H-pyrazolo[4,3-b]pyridin-5-one], for which the values for the IC50 in assay [1], in assay [2] and in assay [3] were 1130 nM, 0.613 nM and 4.43 nM, respectively. Moreover, the GI50 in assay [4] is 30.2 nM.

In the case of `CCC(Nc1c(-c2nc3cc(OC)c(OC)cc3[nH]2)c(=O)[nH]c2cn(C)nc12)c1ncccn1` (single isomer, unassigned) [Compound 42, (S*)-6-(5,6-dimethoxy-1H-benzo[d]imidazol-2-yl)-2-methyl-7-((1-(pyrimidin-2-yl)-propyl)amino)-2H-pyrazolo[4,3-b]pyridin-5 (4H)-one], the IC50 in assay [1] is 591 nM; in assay [2], 0.407 nM; in assay [3] it was 2.16 nM. Besides, the GI50 in assay [4] was determined as 12.5 nM.
